Each block holds one substance with its values, some of them ahead of it.
How the values were obtained:
[1] = target: T1, full-length rabbit TM (Oryctolagus cuniculus, UniProt Q8HZ48); experiment: APC generation by soluble full-length rabbit TM with thrombin and protein C (chromogenic S-2366); type: biochemical; conditions: 2 nM TM, 500 nM protein C, 1 mM Ca2+, 2 nM THR, 10 min, 37° C., over baseline
T1 construct: full-length rabbit TM purified from lungs; from tissue; host or cells: rabbit lung (purified after N. L. Esmon et al. 1982)
Protocol: For each type of cationic protein or modification thereof to be tested, 2 nM TM (full-length rabbit TM) and 500 nM protein C are incubated together in the presence of 1 mM (i.e., physiologic) Ca^2+ with either no cationic protein (for a baseline determination) or […] of the cationic protein. The generation of APC is initiated by the addition of 2 nM THR in 50 mM of the buffer Tris, 100 mM NaCl, pH 7.4 at 37° C. The reaction is allowed to proceed for 10 minutes, then quenched by the addition of AT III (antithrombin obtained from Enzyme Research Laboratories, Inc., South Bend, Ind.) and EDTA. […] A cationic protein that can be used in the methods and compositions of the present invention include those that show at least a two-fold increase in APC production, relative to a baseline of APC generated without the cationic protein.
Dose-response studies were then performed with increasing amounts of PF4 to assay its effect upon the ability of three TM preps to generate APC from protein C. […] See, C.
For each type of TM, 2 nM TM and 500 nM protein C were incubated together in the presence of 1 mM (i.e., physiologic) Ca^2+ with or without PF4, and the generation of APC initiated by the addition of 2 nM THR in 50 mM Tris, 100 mM NaCl, pH 7.4 at 37° C. The reaction was allowed to proceed for 10 minutes, then quenched by the addition of AT III (obtained from Enzyme Research Laboratories, Inc., South Bend, Ind.) and EDTA. […] Negative controls of plastic wells treated in a parallel fashion except that TM was omitted. Values obtained from these controls were then subtracted from the rates measured for wells containing monolayers.

[2] = target: T2, GAG+ TM (Homo sapiens, UniProt P07204); experiment: APC generation by recombinant GAG+ TM with thrombin and protein C (chromogenic S-2366); type: biochemical; conditions: for acceleratory effect upon APC generation by thrombomodulin (GAG+ TM): conditions of Example 1, GAG+ TM, FIG. 4
T2 construct: encompassing the entire extracellular domain ([amino acids 1-497], which includes the serine 492 glycosylation site); host or cells: Chinese Hamster Ovary cells
Protocol: (§1) Human PF4 was purified from outdated platelets by THR stimulation, NH4 SO4 precipitation, heparin affinity chromatography, and Scphadex G-100 chromatography using a technique described in T. F. Deuel et al., Proc. Natl. Acad. Sci. USA, 74, 2256-2258 (1977), which is incorporated herein by reference. Dose-response studies were then performed with increasing amounts of PF4 to assay its effect upon the ability of three TM preps to generate APC from protein C. The three TM preps employed were: a) full-length rabbit TM purified from lungs (see, N. L. Esmon et al., J. Biol. Chem., 257, 859-864 (1982)); and b) two differentially glycated versions of a recombinantly produced polypeptide fragment of human TM encompassing the entire extracellular domain ([amino acids 1-497], which includes the serine 492 glycosylation site) expressed in Chinese Hamster Ovary cells, provided by Berlex Biosciences (Richmond, Calif.). See, C. B. Glaser et al., J. Clin. Invest., 90, 2565-2573 (1992). These polypeptides were produced in two chromatographically separable forms: the first has an apparent molecular weight of 116 kD and contains a chondroitinase ABC-cleavable GAG moiety (henceforth referred to GAG+ TM); the second is an unglycated version of the same polypeptide with apparent molecular weight of 95 kD, henceforth referred to as GAG- TM.
(§2) For each type of TM, 2 nM TM and 500 nM protein C were incubated together in the presence of 1 mM (i.e., physiologic) Ca^2+ with or without PF4, and the generation of APC initiated by the addition of 2 nM THR in 50 mM Tris, 100 mM NaCl, pH 7.4 at 37° C. The reaction was allowed to proceed for 10 minutes, then quenched by the addition of AT III (obtained from Enzyme Research Laboratories, Inc., South Bend, Ind.) and EDTA. APC was quantified spectrophotometrically with the chromogenic substrate S-2366 (obtained from Kabi Vitrum, Franklin, Ohio). The spectrophotometric analysis involved the conversion of the chromogenic substrate at […] in a 37° C. spectrophotometer cell based on the initial rate of optical density change. Negative controls of plastic wells treated in a parallel fashion except that TM was omitted. Values obtained from these controls were then subtracted from the rates measured for wells containing monolayers.
The conditions used were identical to those listed in Example 1 except GAG+ TM obtained from Berlex Biosciences was used for all experiments.

[3] = tested on: purified, soluble rabbit TM; conditions: polyanions added to MBP-inhibited TM; cited from earlier work
[4] = tested on: cell-surface TM on porcine aortic endothelial cell (PAEC) monolayers; experiment: APC generation by porcine aortic endothelial cell monolayers; type: cell-based
Protocol: In these experiments, 1 cm^2 monolayers of endothelial cells were overlaid with PBS buffer containing 500 nM PC and 1 mM Ca^2+, then further supplemented with either PBS or PBS with 15% (v/v) bovine serum. To these wells were then added increasing concentrations of purified native PF4. The resultant mixture was incubated for 20 minutes after which either 2 nM (PBS) or 10 nM THR (15% serum) was added and the generation of APC allowed to proceed for 45 minutes prior to quenching with addition of AT III and EDTA.

[5] = tested on: TM; experiment: APC generation in the absence of added THR (control); type: biochemical; conditions: PF4 alone or PF4 together with TM
Protocol: as §2, with “The” for “For each type of TM, 2 nM TM and 500 nM protein C were incubated together in the presence of 1 mM (i.e., physiologic) Ca^2+ with or without PF4, and the generation of APC initiated by the addition of 2 nM THR in 50 mM Tris, 100 mM NaCl, pH 7.4 at 37° C. The”
(§3) PF4 accelerates APC generation by full-length rabbit TM and GAG- TM 4-fold, and that of GAG+ TM 25-fold. GAG+ TM was also accelerated 10-fold by PF4 in the presence of 15% defibrinated plasma. […] The increase in APC was not an artifact of PF4 influencing the catalytic activity of APC towards chromogenic substrate.

[6] = tested on: GAG- TM; experiment: APC generation by recombinant GAG- TM with thrombin and protein C (chromogenic S-2366); type: biochemical, human
Protocol: as §1, with “These polypeptides were produced in two chromatographically separable forms: the first has an apparent molecular weight of 116 kD and contains a chondroitinase ABC-cleavable GAG moiety (henceforth referred to GAG+ TM); the second is an unglycated version of the same polypeptide with apparent molecular weight of 95 kD, henceforth referred to as GAG- TM.” left out
The reaction was allowed to proceed for 10 minutes, then quenched by the addition of AT III (obtained from Enzyme Research Laboratories, Inc., South Bend, Ind.) and EDTA. APC was quantified spectrophotometrically with the chromogenic substrate S-2366 (obtained from Kabi Vitrum, Franklin, Ohio). […] Values obtained from these controls were then subtracted from the rates measured for wells containing monolayers. […]

[7] = target: T2, GAG+ TM; experiment: APC generation by recombinant GAG+ TM with thrombin and protein C (chromogenic S-2366); type: biochemical
[8] = tested on: APC; experiment: Detection of known amounts of APC in 15% serum by chromogenic substrate (control); type: biochemical; conditions: known amounts of APC added to 15% serum, not shown
Protocol: In addition to stimulating APC generation by soluble forms of TM in buffers, PF4 also stimulates APC generation of cell-surface TM on porcine aortic endothelial cell (PAEC) monolayers in plasmatic conditions. In these experiments, 1 cm^2 monolayers of endothelial cells were overlaid with PBS buffer containing 500 nM PC and 1 mM Ca^2+, then further supplemented with either PBS or PBS with 15% (v/v) bovine serum. To these wells were then added increasing concentrations of purified native PF4. The resultant mixture was incubated for 20 minutes after which either 2 nM (PBS) or 10 nM THR (15% serum) was added and the generation of APC allowed to proceed for 45 minutes prior to quenching with addition of AT III and EDTA. Supernatants were then centrifuged to remove cellular debris and APC generation quantified using chromogenic substrate S-2366 as described above. In the absence of added serum, there is a 2 1/2-fold increase in APC generation with an optimum at 3.3 μg/ml of PF4, but decreasing APC generation with higher concentrations. In contrast, in the presence of 15% serum, the baseline APC generation is much lower despite the presence of higher concentrations of THR. There is a PF4 dose-dependent increase in APC generation with an optimum at 33 μg/ml PF4, at which point APC generation is 10-fold higher than baseline. […]

[9] = tested on: THR; experiment: TM-independent activation of protein C by THR (control); type: biochemical; conditions: controls, not shown
Protocol: as §2, §3

[10] = tested on: TM; experiment: APC formation with exogenous TM in combination with PF4; conditions: pharmacological (exogenous) TM in combination with purified naturally occurring or recombinant PF4
Description: The particularly preferred compositions of the present invention include those containing purified PF4, or a modification thereof, and a thrombomodulin preparation, such as purified soluble GAG+ thrombomodulin. Such compositions display particularly high levels of APC formation, and thus particularly effective levels of anticoagulation. For example, with the administration of a pharmacological form of TM, i.e., an exogenous form, in combination with purified naturally occurring or recombinant PF4, there is a 3-8 fold increase in the amount of APC formed, as compared to the administration of PF4 alone using endogenous forms of TM. This is particularly advantageous because TM and PF4, individually or together, have a higher therapeutic index than does heparin, which is currently used for anticoagulation therapy.

[11] = 2 nM TM, 500 nM protein C, 1 mM Ca2+, 2 nM THR, 10 min, 37° C., over baseline

T1 sequence (Q8HZ48 19-580): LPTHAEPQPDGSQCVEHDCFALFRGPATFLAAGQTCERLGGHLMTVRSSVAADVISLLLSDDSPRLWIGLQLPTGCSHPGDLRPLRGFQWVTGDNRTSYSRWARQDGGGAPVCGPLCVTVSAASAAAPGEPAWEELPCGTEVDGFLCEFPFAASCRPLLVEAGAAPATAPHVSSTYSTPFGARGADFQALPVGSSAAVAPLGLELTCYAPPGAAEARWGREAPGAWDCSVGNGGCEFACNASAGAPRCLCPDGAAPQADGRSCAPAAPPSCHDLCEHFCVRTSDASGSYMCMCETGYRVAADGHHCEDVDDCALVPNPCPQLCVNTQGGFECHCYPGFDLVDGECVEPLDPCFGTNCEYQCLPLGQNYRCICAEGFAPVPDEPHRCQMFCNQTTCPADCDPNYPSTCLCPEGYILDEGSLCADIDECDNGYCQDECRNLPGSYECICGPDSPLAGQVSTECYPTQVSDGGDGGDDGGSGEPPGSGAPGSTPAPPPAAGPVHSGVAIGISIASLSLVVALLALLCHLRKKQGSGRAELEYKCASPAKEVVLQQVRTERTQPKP
T2 sequence (P07204 19-515): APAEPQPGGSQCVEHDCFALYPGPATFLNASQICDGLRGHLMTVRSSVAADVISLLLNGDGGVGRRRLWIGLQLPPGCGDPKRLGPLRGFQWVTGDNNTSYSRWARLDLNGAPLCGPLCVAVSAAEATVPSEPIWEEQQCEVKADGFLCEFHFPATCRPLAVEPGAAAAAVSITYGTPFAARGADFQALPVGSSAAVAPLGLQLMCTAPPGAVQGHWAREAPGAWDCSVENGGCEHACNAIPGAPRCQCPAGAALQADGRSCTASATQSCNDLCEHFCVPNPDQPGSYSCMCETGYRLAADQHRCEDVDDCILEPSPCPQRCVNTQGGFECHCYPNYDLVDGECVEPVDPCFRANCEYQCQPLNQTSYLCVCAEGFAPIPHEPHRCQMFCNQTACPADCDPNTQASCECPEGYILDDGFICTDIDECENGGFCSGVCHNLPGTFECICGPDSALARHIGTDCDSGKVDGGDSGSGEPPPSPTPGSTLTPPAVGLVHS

Substance: poly-L-lysine
fold acceleration of APC generation by full-length rabbit TM [1]: 2.5 fold
acceleratory effect upon APC generation by thrombomodulin (GAG+ TM) [2]: can be replicated

Substance: thrombospondin: anionic protein; major constituent of platelet α-granules
acceleratory effect upon APC generation by thrombomodulin (GAG+ TM) [2]: no such effect

acceleratory effect upon APC generation by thrombomodulin (GAG+ TM) [2]: no such effect
Substance: chondroitin sulfate A

Substance: protamine sulfate
fold acceleration of APC generation by full-length rabbit TM [1]: 2.5 fold
acceleratory effect upon APC generation by thrombomodulin (GAG+ TM) [2]: can be replicated

acceleratory effect upon APC generation by thrombomodulin (GAG+ TM) [2]: no such effect
Substance: heparin
reversal of MBP inhibition of APC generation [3]: reversed

Substance: PF4: moderately cationic and hydrophobic major protein constituent of platelet α-granules, 7.8 kD; human PF4 purified from outdated platelets
PF4 concentration optimum for APC generation, PAEC, 15% serum ([4]; 15% (v/v) bovine serum, 10 nM THR): 33 µg/mL
fold increase in APC generation over baseline, PAEC, 15% serum ([4]; 15% (v/v) bovine serum, 10 nM THR, at 33 μg/ml PF4): 10 fold
PF4 concentration optimum for APC generation, PAEC, no serum ([4]; PBS, absence of added serum, 2 nM THR): 3.3 µg/mL
APC generation in the absence of added THR [5]: neither PF4 alone nor PF4 together with TM generated APC
fold acceleration of APC generation by GAG- TM [6, 11]: 4 fold
effect of PF4 on Ca2+ dependence of APC generation by GAG- variant ([6]; several Ca2+ concentrations, FIG. 2): increases APC generation at all Ca^2+ concentrations but does not shift the overall shape of the curve
APC generation in the absence of Ca2+ ([7]; 0 calcium, buffers with 1 mM EDTA, GAG+ and GAG- forms of TM): allows both the GAG+ and GAG- forms of TM to generate APC even in the absence of Ca^2+
Ca2+ optimum of APC generation by GAG+ TM with PF4 added ([7]; PF4 added, FIG. 2): 0.5 mM
effect on APC detection by chromogenic substrate [8]: did not diminish or augment APC detection
effect upon TM-independent activation of protein C by THR [9]: essentially no effect
fold acceleration of APC generation by full-length rabbit TM [1]: 4 fold
fold increase in the amount of APC formed, exogenous TM plus PF4 versus PF4 alone using endogenous TM [10]: 3-8 fold
fold acceleration of APC generation by GAG+ TM [2, 11]: 25 fold
acceleration of GAG+ TM by PF4 relative to full-length rabbit TM and GAG- TM (fold-over-baseline basis) ([2]; fold-over-baseline comparison): more than six times as much
fold acceleration of APC generation by GAG+ TM in plasma ([2]; in the presence of 15% defibrinated plasma): 10 fold

acceleratory effect upon APC generation by thrombomodulin (GAG+ TM) [2]: no such effect
Substance: chondroitin sulfate E
reversal of MBP inhibition of APC generation [3]: reversed
